Target: T1, AR (Homo sapiens, UniProt P10275)
T1 sequence (P10275 1-920): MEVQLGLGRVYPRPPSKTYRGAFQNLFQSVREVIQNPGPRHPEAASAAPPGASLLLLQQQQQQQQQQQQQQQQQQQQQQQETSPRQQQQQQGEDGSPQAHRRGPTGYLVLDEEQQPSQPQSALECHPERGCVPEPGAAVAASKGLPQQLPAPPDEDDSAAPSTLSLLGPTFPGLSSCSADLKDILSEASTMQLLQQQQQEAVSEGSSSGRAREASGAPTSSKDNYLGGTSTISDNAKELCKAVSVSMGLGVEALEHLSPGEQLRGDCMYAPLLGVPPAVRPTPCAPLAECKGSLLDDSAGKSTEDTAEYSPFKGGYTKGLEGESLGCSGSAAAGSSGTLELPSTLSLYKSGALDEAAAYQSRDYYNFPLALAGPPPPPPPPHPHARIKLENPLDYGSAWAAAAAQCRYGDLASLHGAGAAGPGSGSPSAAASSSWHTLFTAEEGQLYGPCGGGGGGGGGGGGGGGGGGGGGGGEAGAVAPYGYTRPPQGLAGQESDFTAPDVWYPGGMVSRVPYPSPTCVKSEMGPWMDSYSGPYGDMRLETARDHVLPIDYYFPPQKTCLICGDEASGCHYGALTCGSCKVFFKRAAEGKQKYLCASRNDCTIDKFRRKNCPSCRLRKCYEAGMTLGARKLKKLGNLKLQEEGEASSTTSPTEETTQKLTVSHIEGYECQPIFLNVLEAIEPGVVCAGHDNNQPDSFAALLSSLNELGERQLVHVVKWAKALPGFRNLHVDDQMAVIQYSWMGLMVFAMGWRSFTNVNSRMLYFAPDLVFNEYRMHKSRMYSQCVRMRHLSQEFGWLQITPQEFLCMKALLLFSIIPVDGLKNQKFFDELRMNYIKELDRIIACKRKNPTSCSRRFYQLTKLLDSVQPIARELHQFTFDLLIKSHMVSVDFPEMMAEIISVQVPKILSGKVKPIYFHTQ
Details: gelding urine sample spiked with trenbolone before deconjugation and extraction; vs ethanol control set at 100%
Description: Spiked trenbolone represents a gelding urine sample that had been spiked with trenbolone before the deconjugation and extraction steps. T7 activity measured for the ethanol control was arbitrarily set at 100%.
Racehorse urine samples were collected on race day and steroids deconjugated and extracted using routine processes. The extracted steroids were resuspended in ethanol and subjected to the assay.

With `C[C@]12C=CC3=C4CCC(=O)C=C4CCC3C1CC[C@@H]2O` (stereo partly shown) [trenbolone] the “suppression of T7-generated Mango II” value was “suppression of T7-generated Mango II”.

Source: US20220214363A1, “NOVEL LIGAND ASSAYS” (InsituGen Limited, priority 2019, published 2022)
